Data as given in PubChem BioAssay (NCI).
Values joined by “and” are separate entries in the source; they are usually repeats but may differ in a detail not shown here. Equal entries are not always repeated.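 1) Cells in 96-well plates. 2) Compound, 48 h, 5 concentrations. 3) Linear interpolation between surrounding doses. 4) Unreached endpoint = highest concentration. TGI is the concentration that stops growth completely.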 Where a SMILES comes first, the peptide text is derived from it. The star is where a group is joined. Cbz = O=C(OCc1ccccc1)*

Experiments:
Experiment in all cases: inhibition of tumour cell growth, NCI panel, 48 h
[1] = tested on: SNB-19 CNS
[2] = tested on: HCT-116 colon
[3] = tested on: UACC-62 melanoma
[4] = tested on: DU-145 prostate
[5] = tested on: HCC-2998 colon
[6] = tested on: NCI-H460 lung
[7] = tested on: M14 melanoma
[8] = tested on: HS 578T breast
[9] = tested on: UO-31 renal
[10] = tested on: A549 NSCLC
[11] = tested on: NCI-H226 lung
[12] = tested on: SR leukemia
[13] = tested on: OVCAR-5 ovarian
[14] = tested on: HT29 colon
[15] = tested on: T-47D breast
[16] = tested on: NCI/ADR-RES ovarian

Row | Structure (SMILES) | TGI [1] | TGI [2] | TGI [3] | TGI [4] | TGI [5] | TGI [6] [µM] | TGI [7] | TGI [8] | TGI [9] | TGI [10] | TGI [11] | TGI [12] [µM] | TGI [13] | TGI [14] | TGI [15] | TGI [16]
1 | CCOC(=O)C(C)NC(=O)C(C)NC(=O)C(C)NC(=O)C(C)NC(=O)C(C)NC(=O)C(C)NC(=O)C(C)NC(=O)OCc1ccccc1 (configuration not stated) (Cbz-AAAAAAA-OEt; configuration not given here) | > 100 µM | > 100 µM | > 100 µM | > 100 µM | > 100 µM | > 100 | > 100 µM | > 100 µM | > 100 µM | > 100 µM | > 100 µM | > 100 | > 100 µM | > 100 µM | > 100 µM | > 100 µM
2 | Cc1ccc(C2=Nc3c(N)nc(N)nc3NC(c3ccccc3)C2)cc1 (configuration not stated) | 27 µM and 32.9 µM | 17.5 µM and 17.6 µM | 22.7 µM and 26 µM | 28.3 µM and 29.3 µM | 19.3 µM and 18.7 µM | 28.3 | 20.8 µM and 21.8 µM | 33.9 µM and 41.1 µM | 25.2 µM and 25.6 µM | 26.3 µM and 23.6 µM | 29.3 µM and 36.7 µM | > 100 | 30.5 µM and 33.5 µM | 14.1 µM and 14.8 µM | 28.2 µM and 32.6 µM | 16.1 µM and 18.2 µM
3 | COc1ccc(NC2=NCCO2)c2ccccc12 | > 10 µM | > 10 µM | > 10 µM | > 10 µM | > 10 µM | > 10 | > 10 µM | > 10 µM | > 10 µM | > 10 µM | > 10 µM | > 10 | > 10 µM | > 10 µM | > 10 µM | > 10 µM
4 | O=C(O)c1ccccc1/C=N\NC1=NCCN1 | > 100 µM | > 100 µM | > 100 µM | > 100 µM | > 100 µM | > 100 | > 100 µM | > 100 µM | > 100 µM | > 100 µM | > 100 µM | > 100 | > 100 µM | > 100 µM | > 100 µM | > 100 µM
5 | Cn1c(=O)n(CC(Br)CBr)c(=O)n(CC(Br)CBr)c1=O (configuration not stated) | > 100 µM | 79.3 µM | 72.8 µM | > 100 µM | 81.1 µM | > 100 | 73.6 µM | > 100 µM | 97.6 µM | > 100 µM | 58.9 µM | 37.4 | > 100 µM | 54.6 µM | > 100 µM | > 100 µM
6 | CC(C)(C)OC(=O)N1CCC23CCCC2C(=O)CC=C13 (configuration not stated) | > 100 µM | > 100 µM | > 100 µM | > 100 µM | > 100 µM | > 100 | > 100 µM | > 100 µM | > 100 µM | > 100 µM | > 100 µM | > 100 | > 100 µM | > 100 µM | > 100 µM | > 100 µM
7 | COC(=O)C1=C(C)NC(C)=C([N+](=O)[O-])C1c1cccc(NO)c1 (configuration not stated) | > 100 µM | 10.5 µM | > 31.6 µM | > 100 µM | 16.8 µM | 17.5 | 12.3 µM | 38.6 µM | 24.1 µM | > 89.6 µM | > 47.3 µM | 8.93 | > 100 µM | 9.79 µM | > 52.4 µM | 46.6 µM
